Source: ChEMBL document CHEMBL1136950, “Thiopyrophosphoantigens: solid-phase synthesis and in vitro characterization of a new class of Vgamma9 Vdelta2 T cells activators” (J Med Chem, 2009)
The source made the active and inactive calls. The calls are words filed in the database; no cut-off is given here.

Key:
[1] = tested on: T-cell; assay: Immunostimulatory activity in human Vgamma9/Vdelta2 T cells assessed as TNFalpha production after 12 hrs by ELISA; format: functional, cell-based
[2] = Stability in presence alkaline phosphatase after 30 mins by HPLC-MS analysis
[3] = Stability in presence of alkaline phosphatase; settings: isolated protein
[4] = Stability in presence alkaline phosphatase after 20 mins by HPLC-MS analysis
[5] = Stability in presence alkaline phosphatase after 60 mins by HPLC-MS analysis
[6] = tested on: T-cell; assay: Immunostimulatory activity in human Vgamma9/Vdelta2 T cells assessed as expansion induces at 20 uM; format: functional, cell-based

| Structure (SMILES) | EC50 [1] | other results |
| --- | --- | --- |
| O=P(O)(O)OP(=O)(O)SCc1ccccc1 | 55 µM | – |
| O=P(O)(O)OP(=O)(O)SCCCCCl | 100 µM | – |
| N#CCCCCSP(=O)(O)OP(=O)(O)O | 1 µM | – |
| O=P(O)(O)OP(=O)(O)SCCOC1CCCCO1 (stereo not drawn) | 12 µM | – |
| C=CCCCCCSP(=O)(O)OP(=O)(O)O | 6.3 µM | – |
| O=P(O)(O)OP(=O)(O)SCCCCF | 10.8 µM | – |
| O=P(O)(O)OP(=O)(O)SCCC1OCCO1 | 0.056 µM | – |
| CC(O)CCSP(=O)(O)OP(=O)(O)O (stereo not drawn) | 75 µM | – |
| CC1(CCSP(=O)(O)OP(=O)(O)O)COC1 | 14 µM | – |
| CCSCCCSP(=O)(O)OP(=O)(O)O | 0.055 µM | – |
| C=C(C)CCSP(=O)([O-])OP(=O)([O-])[O-].[Na+].[Na+].[Na+] | 3.75 µM | remaining at 0.5 h [2]: 54%; Stability [3]: 94%; remaining at 20 min [4]: 48%; remaining at 1 h [5]: 27% |
| C/C(=C\CSP(=O)(O)OP(=O)(O)O)CO | 0.0048 µM | Activity [6]: Active |
| O=P(O)(O)OP(=O)(O)SCCOCCCl | 0.39 µM | – |
